Assays:
[1] = 100 kPa, Liquid; for viscosity: Concentric cylinders viscometry; for mass density: Vibrating tube method
[2] = refractive index (Na D-line) (dimensionless); details: 100 kPa, Liquid, Standard Abbe refractometry
[3] = xn = mol fraction of the nth substance listed; details: 100 kPa, Liquid, x2 = 0; for viscosity: Concentric cylinders viscometry; for mass density: Vibrating tube method
[4] = refractive index (Na D-line) (dimensionless); xn = mol fraction of the nth substance listed; details: 100 kPa, Liquid, Standard Abbe refractometry, x2 = 0

OCCCO [propan-1,3-diol]
Details | mass density, [1] [kg/m3] | refractive index, [2] | viscosity, [1] [mPa·s]
293.15 K | 1053.03 | 1.43918 | 52.31
298.15 K | 1049.9 | 1.43783 | 41.55
303.15 K | 1046.77 | 1.43648 | 33.22
308.15 K | 1043.63 | 1.43515 | 26.87
313.15 K | 1040.49 | 1.43382 | 21.85
318.15 K | 1037.33 | 1.4324 | 18.12
323.15 K | 1034.16 | 1.43101 | 15.21

OCCCO [propan-1,3-diol] + CN1CCC[C@H]1c1cccnc1
Details | mass density, [3] [kg/m3] | refractive index, [4] | viscosity, [3] [mPa·s]
293.15 K | 1053.03 | 1.43918 | 52.31
298.15 K | 1049.9 | 1.43783 | 41.55
303.15 K | 1046.77 | 1.43648 | 33.22
308.15 K | 1043.63 | 1.43515 | 26.87
313.15 K | 1040.49 | 1.43382 | 21.85
318.15 K | 1037.33 | 1.4324 | 18.12
323.15 K | 1034.16 | 1.43101 | 15.21

CC(O)CO (stereo not drawn) [1,2-propanediol]
Details | mass density, [1] [kg/m3] | refractive index, [2] | viscosity, [1] [mPa·s]
293.15 K | 1036.3 | 1.43279 | 59.56
298.15 K | 1032.62 | 1.43111 | 44.14
303.15 K | 1028.91 | 1.42941 | 33.25
308.15 K | 1025.16 | 1.42773 | 25.5
313.15 K | 1021.39 | 1.42601 | 19.78
318.15 K | 1017.57 | 1.42429 | 15.76
323.15 K | 1013.72 | 1.42257 | 12.75

Reference: the NIST ThermoML archive (doi:10.1016/j.jct.2016.07.005)
